In paper PMC11587510, “Aromatic Amino Acid Hydroxylases as Off-Targets of Histone Deacetylase Inhibitors” (ACS Chemical Neuroscience, 2024):
Several values for one entry are separate records, joined by “and”; a condition that tells them apart may be missing. Equal entries are not always repeated. Where two headings read alike, the source gives them in different places.

Columns and labels:
TPH1 = molecular target: T1, TPH1 (Homo sapiens, UniProt P17752); assay: Differential scanning fluorimetry (DSF) thermal stability assay; type: binding; details: for Tm (°C) ± SD (°C), primary screen / ΔTm (°C) ± SD (°C), primary screen / ΔTm at 50 µM: DSF, 50 μM compound; for Tm (°C) ± SD (°C), primary screen: 0.075 mg/mL TPH1, 0.5% DMSO, three independent measurements (a: duplicates); for ΔTm (°C) ± SD (°C), primary screen / ΔTm at 50 µM: vs averaged Tm of 0.5% DMSO controls; for Kd: read-out: apparent KD (μM), dose-response; for ΔTm at 50 µM: read-out: ΔTm (°C) ± SD (°C), primary screen
T1 construct: doubly truncated human TPH1 (ΔNH102-ΔCOOH402); made in house; host or cells: E. coli BL21(DE3)
T1 sequence (P17752 102-402): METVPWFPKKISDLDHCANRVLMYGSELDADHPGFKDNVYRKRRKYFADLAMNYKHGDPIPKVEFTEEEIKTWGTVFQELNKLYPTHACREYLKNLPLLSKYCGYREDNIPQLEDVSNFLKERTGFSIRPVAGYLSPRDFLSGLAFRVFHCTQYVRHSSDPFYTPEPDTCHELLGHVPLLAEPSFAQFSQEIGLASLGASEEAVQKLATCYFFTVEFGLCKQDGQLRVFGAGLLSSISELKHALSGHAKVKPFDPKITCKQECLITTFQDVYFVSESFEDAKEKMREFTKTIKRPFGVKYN
Method: A fluorescence-based thermal stability assay (differential scanning fluorimetry, DSF) was used for testing the effects of HDIs on the thermal stability of TPH1.
For initial high throughput screening (HTS), compounds were prepared at a concentration of 10 mM (in some cases, 5 mM) in 100% DMSO. Initial HTS screening was performed on TPH1 with and without compounds using a LightCycler 480 Real-Time PCR System (Roche Applied Science). TPH1 was diluted to 0.075 mg/mL in 50 mM Tris pH 8.0, 200 mM NaCl, 0.5 mM TCEP, and 5% glycerol with 5x SYPRO Orange. Compounds were added to a final concentration of 50 μM. Controls with 0.5% DMSO were performed on each 384-well microplate. Unfolding curves were recorded from 20 to 95 °C at a scan rate of 2 °C/min and monitored at excitation = 465 nm and emission = 610 nm. Selected hits were validated further by serial dilution from 250 μM to 122 nM, keeping the DMSO concentration constant at 2%.
DSF data were analyzed using HTSDSF Explorer.[55] Melting temperature (Tm) was calculated from the maximum value of the first derivative of the unfolding curve. ΔTm (Tm with compound–averaged Tm in DMSO controls) was plotted for all validated curves and a threshold of 2 °C was set (typically, cutoff at ΔTm = 3-fold the SD of the Tm of the DMSO control).
Preliminary binding constants (KD) were calculated by fitting data to the equation [drawing 1] where ΔH0 is the enthalpy of the unfolding of the protein in the presence of ligand ([L]), and R is the gas constant.

[1] = molecular target: T2, doubly truncated human TPH1 (ΔNH102-ΔCOOH402) (Homo sapiens, UniProt P17752); assay: TPH1 enzyme activity assay (HPLC, 5-OH-Trp); type: biochemical; details: for IC50: best-fit IC50 (± SE), nonlinear regression, N.A. = no activity
T2 construct: doubly truncated human TPH1 (ΔNH102-ΔCOOH402); made in house; host or cells: E. coli BL21(DE3)
T2 sequence (P17752 102-402, stated change not applied): as the sequence (P17752 102-402) above
Method: (§1) TPH1 enzymatic activity assays were performed with the selected hits from the DSF screening in the presence and absence of 50 μM of each compound. The final concentration of DMSO was 0.5% (v/v), and control experiments used 0.5% DMSO in the absence of ligand. Assays were performed in a standard reaction mixture containing 40 mM Hepes pH 7.0, 200 mM NaCl, 0.1 mg/mL catalase, 0.5 mg/mL BSA, 10 μM ferrous ammonium sulfate, and 30 μM L-tryptophan (L-Trp). Compounds were incubated with TPH1 (0.02 mg/mL) in the reaction mixture for 10 min on ice.

human TPH2 = molecular target: T3, human TPH2 (Homo sapiens, UniProt Q8IWU9); assay: TPH2 enzyme activity assay (HPLC); type: biochemical; details: best-fit IC50 (± SE), nonlinear regression; N.A. = no activity
T3 construct: Full-length human TH isoform 1 (TH1), human PAH, human TPH2, and doubly truncated human TPH1; MBP (cleaved yes); made in house; host or cells: E. coli BL21(DE3)
T3 sequence (Q8IWU9 1-490): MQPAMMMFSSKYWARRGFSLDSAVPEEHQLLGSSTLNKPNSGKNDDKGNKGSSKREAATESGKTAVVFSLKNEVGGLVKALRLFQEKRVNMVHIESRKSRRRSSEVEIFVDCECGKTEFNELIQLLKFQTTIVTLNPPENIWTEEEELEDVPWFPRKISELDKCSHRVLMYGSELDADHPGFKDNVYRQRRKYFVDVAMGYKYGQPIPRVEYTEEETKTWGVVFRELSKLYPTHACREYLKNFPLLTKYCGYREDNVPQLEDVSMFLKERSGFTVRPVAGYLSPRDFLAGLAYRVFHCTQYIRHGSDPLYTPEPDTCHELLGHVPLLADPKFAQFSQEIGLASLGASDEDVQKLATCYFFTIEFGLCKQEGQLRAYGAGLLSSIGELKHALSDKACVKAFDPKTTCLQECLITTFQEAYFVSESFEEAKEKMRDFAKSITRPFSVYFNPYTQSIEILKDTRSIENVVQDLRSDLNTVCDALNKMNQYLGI
Method: as §1

human PAH = molecular target: T4, human PAH (Homo sapiens, UniProt P00439); assay: PAH enzyme activity assay (HPLC, L-Tyr); type: biochemical; details: best-fit IC50 (± SE), nonlinear regression, N.A. = no activity
T4 construct: Full-length human TH isoform 1 (TH1), human PAH, human TPH2, and doubly truncated human TPH1; made in house; host or cells: E. coli TB1
T4 sequence (P00439 1-452): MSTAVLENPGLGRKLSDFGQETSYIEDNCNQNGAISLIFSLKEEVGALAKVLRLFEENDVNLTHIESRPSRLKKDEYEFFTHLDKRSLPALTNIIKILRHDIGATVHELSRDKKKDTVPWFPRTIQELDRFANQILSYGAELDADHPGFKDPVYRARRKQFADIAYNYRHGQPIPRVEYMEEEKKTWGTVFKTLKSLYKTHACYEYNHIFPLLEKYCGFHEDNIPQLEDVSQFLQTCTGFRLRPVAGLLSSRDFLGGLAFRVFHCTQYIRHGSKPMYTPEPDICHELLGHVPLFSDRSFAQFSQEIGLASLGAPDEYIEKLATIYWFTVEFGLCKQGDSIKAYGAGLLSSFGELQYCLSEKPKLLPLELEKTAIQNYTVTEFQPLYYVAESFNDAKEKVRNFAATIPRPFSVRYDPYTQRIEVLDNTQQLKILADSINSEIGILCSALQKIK

human TH isoform 1 (TH1) = molecular target: T5, human TH isoform 1 (TH1) (Homo sapiens, UniProt P07101); assay: TH enzyme activity assay (HPLC, L-DOPA); type: biochemical; details: best-fit IC50 (± SE), nonlinear regression; N.A. = no activity
T5 construct: Full-length human TH isoform 1 (TH1); His6-ZZ fusion partner (one of the two preparations only) (cleaved yes); made in house; host or cells: E. coli BL21(DE3) pLysS (pET3a) or BL21 CodonPlus (pET-ZZ-1a)
T5 sequence (P07101 1-497 isoform P07101-3): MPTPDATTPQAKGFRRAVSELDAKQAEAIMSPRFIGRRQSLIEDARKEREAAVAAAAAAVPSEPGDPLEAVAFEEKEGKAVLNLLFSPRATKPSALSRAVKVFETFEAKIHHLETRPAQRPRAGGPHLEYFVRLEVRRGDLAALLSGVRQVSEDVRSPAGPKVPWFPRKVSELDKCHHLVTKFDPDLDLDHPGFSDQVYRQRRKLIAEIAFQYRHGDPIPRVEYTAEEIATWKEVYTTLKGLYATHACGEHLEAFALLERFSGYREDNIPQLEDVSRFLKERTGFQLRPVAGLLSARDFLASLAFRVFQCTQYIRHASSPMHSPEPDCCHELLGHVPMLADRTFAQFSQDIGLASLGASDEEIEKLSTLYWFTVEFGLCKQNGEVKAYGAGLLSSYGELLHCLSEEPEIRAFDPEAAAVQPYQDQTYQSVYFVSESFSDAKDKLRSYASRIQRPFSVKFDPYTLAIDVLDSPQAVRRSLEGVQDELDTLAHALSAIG
Method: The activity of purified PAH, TH, TPH1, and TPH2 was measured using high-performance liquid chromatography (HPLC) as previously described.[50],[56],[57]
TH activities were performed in a standard reaction mixture containing 40 mM Hepes (pH 7.0), 0.1 mg/mL catalase, 10 μM ferrous ammonium sulfate, and 50 μM L-Tyr. Compounds were incubated with TH (0.01 mg/mL) in the reaction mixture for 10 min on ice. The enzymatic reaction was initiated by adding 200 μM BH4 and 2 mM DTT (final concentrations) and stopped by precipitation with 2% (v/v) acetic acid in ethanol after 5 min at 37 °C. The product, L-DOPA, was quantified by HPLC utilizing a fluorescence monitor set at 281 and 314 nm for excitation and emission, respectively.
GraphPad Prism (version 10; La Jolla, CA) was used for analyzing the enzyme inhibition data.

HDAC 1 = details: human recombinant HDAC; ref 5 (10.1021/acs.jmedchem.8b01090); cited from earlier work
HDAC 6 = details: human recombinant HDAC; ref 5 (10.1021/acs.jmedchem.8b01090); cited from earlier work
human recombinant HDAC1 = molecular target: T6, human recombinant HDAC1 (Homo sapiens, UniProt Q13547); assay: HDAC1 activity assay (homogeneous fluorescence, ZMAL); type: biochemical; details: 1.11–30 μM compound, DMSO (5%) control
T6 construct: purchased BPS Bioscience 50051
T6 sequence (Q13547 whole entry): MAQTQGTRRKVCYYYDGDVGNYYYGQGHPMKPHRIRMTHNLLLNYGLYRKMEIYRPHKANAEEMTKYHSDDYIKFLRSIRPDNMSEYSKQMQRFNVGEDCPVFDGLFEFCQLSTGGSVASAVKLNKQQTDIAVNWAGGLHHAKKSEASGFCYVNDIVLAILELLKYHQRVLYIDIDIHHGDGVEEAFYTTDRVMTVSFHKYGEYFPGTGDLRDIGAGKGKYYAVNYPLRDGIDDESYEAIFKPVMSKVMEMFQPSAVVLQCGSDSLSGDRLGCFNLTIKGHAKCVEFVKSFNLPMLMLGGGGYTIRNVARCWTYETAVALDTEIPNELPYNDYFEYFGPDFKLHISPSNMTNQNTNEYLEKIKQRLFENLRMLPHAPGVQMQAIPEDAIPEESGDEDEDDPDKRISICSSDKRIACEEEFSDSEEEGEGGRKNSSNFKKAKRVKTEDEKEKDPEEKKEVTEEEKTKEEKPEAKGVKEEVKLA
Method: HDAC1 inhibition was determined by using a homogeneous fluorescence assay as previously described.[58] For HDAC1 activity assay, OptiPlate-96 black microplates (PerkinElmer) were used.

[2] = Solubility observed in DSF dose-response; type: physicochemical; details: highest concentrations removed before curve fitting
HDAC 8 = details: human recombinant HDAC; ref 1 (PMID: 26443078); cited from earlier work
[3] = estimated from DSF dose-response, 2% DMSO

Row | SMILES | Tm (°C) ± SD (°C), primary screen (TPH1) | ΔTm (°C) ± SD (°C), primary screen (TPH1) [°C] | Kd (TPH1; [3]) | also measured
1 | Cc1ccc(C(=O)NO)cc1C(=O)Nc1ccc(Cl)cc1 [EG23, 3-(4-Chlorophenylcarbamoyl)-N-hydroxy-4-methylbenzamide] | 58.2 ± 0.2 °C | 2.7 ± 0.2 | 14.1 µM | –
2 | Oc1ccccc1-c1nc2ccccc2o1 [2-(2-OH-phenyl)benzoxazol, 2-(2-hydroxyphenyl)benzoxazole, reference compound] | 57.6 ± 0.7 °C | – | – | ΔTm at 50 µM (TPH1): 2.3 ± 0.9 °C
3 | COc1ccc(C(=O)NO)cc1NS(=O)(=O)c1ccc(C)cc1 [TH71, 3-(N-para-touluenyl)-sulfonamido-4-methoxy-benzohydroxamate] | 60.0 ± 0.3 °C | 4.7 ± 0.1 | 1.8 µM | –
4 | COc1ccc2c(c1)N(Cc1ccc(C(=O)NO)cc1)c1ccccc1S2 [KV103, N-Hydroxy-4-[(2-methoxy-10H-Phenothiazin-10-yl)methyl]benzamide] | 59.6 ± 0.7 °C | 4.3 ± 0.5 | 49.4 µM | IC50 [1]: 106 ± 177 µM; inhibition of TPH1 activity at 50 μM ([1]; compound 50 μM, 0.5% DMSO): more than 50%; IC50 (human TPH2): 9.78 ± 17.2 µM; IC50 (human PAH; read-out: IC50 (μM) PAH): 8.12 ± 1.67 µM; IC50 (human TH isoform 1 (TH1)): 100 ± 128 µM; IC50 (HDAC 1): 2.07 ± 0.19 µM; IC50 (HDAC 6): 0.01 ± 0.001 µM
5 | Cc1ccn(-c2cc(Cl)ccc2[C@@H](Oc2cc(-c3ccc(C[C@H](N)C(=O)O)cc3)nc(N)n2)C(F)(F)F)n1 [telotristat] | – | – | – | IC50 (human PAH; read-out: IC50 (μM) PAH): 4.9 µM; IC50 (human TH isoform 1 (TH1)): 4.2 µM; effect on HDAC1 activity (human recombinant HDAC1): do not inhibit
6 | Nc1ccccc1NC(=O)c1ccc(CNC(=O)OCc2cccnc2)cc1 [entinostat, reference compound] | 56.0 ± 0.4 °C | – | – | ΔTm at 50 µM (TPH1): 0.7 ± 0.3 °C
7 | N[C@@H](Cc1ccc(Cl)cc1)C(=O)O [L-PCPA, 4-chloro-L-phenylalanine] | – | – | – | effect on HDAC1 activity (human recombinant HDAC1): do not inhibit
8 | COC(=O)[C@H](Cc1ccc(-c2ccc(C)cc2)cc1)NC(=O)CCCCCCC(=O)NO [SW189] | 58.0 ± 0.3 °C | 2.7 ± 0.0 | – | –
9 | COc1ccc(C(=O)NO)cc1OCc1ccccc1 [PZ031, 3-Benzyloxy-4-methoxybenzhydroxamic acid] | 57.0 ± 0.2 °C | 1.6 ± 0.1 | 54.6 µM | –
10 | CC(C)c1cccc(=O)c(O)c1 [β-thujaplicin, reference compound] | – | – | – | effect of increasing compound concentration on the Tm of TPH1 (TPH1; DSF dose-response): concentration-dependent shift by decreasing the Tm; ΔTm at 50 µM (TPH1): -1.7 ± 0.1 °C; apparent KD (μM), dose-response (TPH1; [3]): very low affinity; IC50 [1]: 12.6 µM; inhibition at 50 µM ([1]; compound 50 μM, 0.5% DMSO): > 50%; IC50 (human TPH2): 12.9 µM; IC50 (human PAH; read-out: IC50 (μM) PAH): 0.46 µM and 0.5 µM; IC50 (human TH isoform 1 (TH1)): 1.37 µM and 1.4 µM
11 | O=C(NO)c1ccc(CN2c3ccccc3Sc3ccccc32)cc1 [KV46, 4-[(10H-phenothiazin-10-yl)methyl]-N-hydroxybenzamide] | 59.1 ± 0.5 ^a °C | 3.6 ± 0.3 | > 100 µM | solubility at the highest concentrations [2]: solubility issues
12 | O=C(NO)c1cc2ccccc2[nH]1 [TB74, 1H-Indole-2-hydroxamic acid] | 59.7 ± 0.4 °C | 4.4 ± 0.4 | 0.7 µM and 1.4 µM | inhibition of TPH1 activity at 50 μM ([1]; compound 50 μM, 0.5% DMSO): no significant inhibition; solubility at the highest concentrations [2]: solubility issues
13 | O=C(NO)c1coc(C(c2ccccc2)c2ccccc2)n1 [JS32, 2-(diphenylmethyl)-1,3-oxazole-4-carbohydroxamic acid] | 58.5 ± 0.2 ^a °C | 3.1 ± 0.0 | 30.9 µM | solubility at the highest concentrations [2]: solubility issues
14 | O=C(CCCCCCC(=O)Nc1ccccc1)NO [vorinostat, reference compound] | 56.4 ± 1.9 °C | – | – | ΔTm at 50 µM (TPH1): 1.1 ± 2.1 °C; IC50 (human PAH; IC50 (μM) PAH): 1.72 ± 0.61 µM; IC50 (HDAC 8): […]
15 | Cc1cc2cc(NS(=O)(=O)c3cc(C(=O)NO)ccc3Cl)ccc2n(C)c1=O [EG29, 4-Chloro-3-[(1,3-dimethyl-2-oxo-1,2-dihydroquinolin-6-yl)sulfamoyl]-N-hydroxybenzamide] | 57.8 ± 0.0 °C | 2.3 ± 0.2 | 10.3 µM | –
16 | O=C(NO)c1cccc(NCc2ccccc2)c1 [TH28, 3-N-Benzylamino-benzohydroxamate] | 58.1 ± 0.3 °C | 2.8 ± 0.1 | 76.3 µM | –
